Data taken from article PMC2751792 (Journal of the American Chemical Society, 2009).
Square brackets hold non-standard residues; d marks the D form. Peptide text beside a SMILES is read from it. * marks the point of attachment. Asu = N[C@@H](CCCCCC(=O)O)C(=O)O; β3hL = CC(C)C[C@H](N)CC(=O)O; NHOH = ON*

Key:
recombinant human HDAC9 = recombinant human HDAC9 (Homo sapiens, UniProt Q9UKV0); assay: Recombinant HDAC isoform inhibition, HDAC9; assay type: biochemical
recombinant human HDAC7 = biological target: T1, recombinant human HDAC7 (Homo sapiens, UniProt Q8WUI4); assay: Recombinant HDAC isoform inhibition, HDAC7; assay type: biochemical
T1 sequence (Q8WUI4 1-952): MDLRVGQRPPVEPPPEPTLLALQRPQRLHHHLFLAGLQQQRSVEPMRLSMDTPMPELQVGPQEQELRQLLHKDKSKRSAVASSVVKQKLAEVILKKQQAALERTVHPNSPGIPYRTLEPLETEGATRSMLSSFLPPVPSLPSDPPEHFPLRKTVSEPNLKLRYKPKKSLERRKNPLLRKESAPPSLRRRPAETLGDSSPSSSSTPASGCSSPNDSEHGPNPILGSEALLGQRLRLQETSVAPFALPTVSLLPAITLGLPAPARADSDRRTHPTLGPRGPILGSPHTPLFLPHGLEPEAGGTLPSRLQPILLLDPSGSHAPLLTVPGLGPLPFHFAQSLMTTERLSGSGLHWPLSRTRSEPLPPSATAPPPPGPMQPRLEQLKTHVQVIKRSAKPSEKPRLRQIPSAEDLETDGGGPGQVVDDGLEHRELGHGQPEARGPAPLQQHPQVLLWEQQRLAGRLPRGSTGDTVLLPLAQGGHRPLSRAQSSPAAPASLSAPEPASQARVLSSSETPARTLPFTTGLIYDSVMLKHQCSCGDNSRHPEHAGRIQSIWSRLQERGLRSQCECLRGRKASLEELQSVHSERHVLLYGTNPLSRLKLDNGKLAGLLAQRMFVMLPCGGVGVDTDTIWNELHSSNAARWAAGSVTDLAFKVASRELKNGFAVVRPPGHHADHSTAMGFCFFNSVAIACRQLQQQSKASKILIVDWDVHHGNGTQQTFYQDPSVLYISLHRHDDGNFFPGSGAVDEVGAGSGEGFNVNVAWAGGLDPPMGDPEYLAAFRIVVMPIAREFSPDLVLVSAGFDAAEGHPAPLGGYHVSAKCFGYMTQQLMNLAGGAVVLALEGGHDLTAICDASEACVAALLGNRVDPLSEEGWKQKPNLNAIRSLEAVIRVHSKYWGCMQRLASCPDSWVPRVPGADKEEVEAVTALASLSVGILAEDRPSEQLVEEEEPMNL

recombinant human HDAC10 = biological target: T2, recombinant human HDAC10 (Homo sapiens, UniProt Q969S8); assay: Recombinant HDAC isoform inhibition, HDAC10; assay type: biochemical
T2 sequence (Q969S8 1-669): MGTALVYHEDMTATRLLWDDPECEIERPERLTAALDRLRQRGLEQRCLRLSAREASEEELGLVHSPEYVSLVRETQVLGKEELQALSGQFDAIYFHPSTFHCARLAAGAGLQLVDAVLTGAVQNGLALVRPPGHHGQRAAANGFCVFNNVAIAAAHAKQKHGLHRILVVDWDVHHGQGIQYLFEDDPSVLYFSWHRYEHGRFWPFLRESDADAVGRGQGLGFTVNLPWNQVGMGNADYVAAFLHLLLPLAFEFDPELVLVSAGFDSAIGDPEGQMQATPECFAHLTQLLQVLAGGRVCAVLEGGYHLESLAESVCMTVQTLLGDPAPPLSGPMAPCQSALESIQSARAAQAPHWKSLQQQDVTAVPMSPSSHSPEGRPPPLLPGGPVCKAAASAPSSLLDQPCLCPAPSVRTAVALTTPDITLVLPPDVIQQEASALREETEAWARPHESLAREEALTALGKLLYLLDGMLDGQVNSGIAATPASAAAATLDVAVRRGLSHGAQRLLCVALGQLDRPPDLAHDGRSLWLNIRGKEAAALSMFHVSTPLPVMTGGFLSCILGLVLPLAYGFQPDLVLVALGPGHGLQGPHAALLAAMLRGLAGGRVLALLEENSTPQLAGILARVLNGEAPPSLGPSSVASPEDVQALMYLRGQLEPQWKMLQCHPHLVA

[1] = tested on: HDAC activity in HeLa cell nuclear extract; assay: Inhibition of HDAC activity in HeLa cell nuclear extract; assay type: biochemical, human; conditions: for HDAC inhibitory activity in HeLa cell nuclear extract, result in words: numbers only in Figures 2-4 (not readable); for IC50: read-out: HDAC inhibition, IC50, HeLa, at least in duplicate
recombinant human HDAC5 = recombinant human HDAC5 (Homo sapiens, UniProt Q9UQL6); assay: Recombinant HDAC isoform inhibition, HDAC5; assay type: biochemical
recombinant human HDAC6 = biological target: T3, recombinant human HDAC6 (Homo sapiens, UniProt Q9UBN7); assay: Recombinant HDAC isoform inhibition, HDAC6; assay type: biochemical
T3 sequence (Q9UBN7 1-1215): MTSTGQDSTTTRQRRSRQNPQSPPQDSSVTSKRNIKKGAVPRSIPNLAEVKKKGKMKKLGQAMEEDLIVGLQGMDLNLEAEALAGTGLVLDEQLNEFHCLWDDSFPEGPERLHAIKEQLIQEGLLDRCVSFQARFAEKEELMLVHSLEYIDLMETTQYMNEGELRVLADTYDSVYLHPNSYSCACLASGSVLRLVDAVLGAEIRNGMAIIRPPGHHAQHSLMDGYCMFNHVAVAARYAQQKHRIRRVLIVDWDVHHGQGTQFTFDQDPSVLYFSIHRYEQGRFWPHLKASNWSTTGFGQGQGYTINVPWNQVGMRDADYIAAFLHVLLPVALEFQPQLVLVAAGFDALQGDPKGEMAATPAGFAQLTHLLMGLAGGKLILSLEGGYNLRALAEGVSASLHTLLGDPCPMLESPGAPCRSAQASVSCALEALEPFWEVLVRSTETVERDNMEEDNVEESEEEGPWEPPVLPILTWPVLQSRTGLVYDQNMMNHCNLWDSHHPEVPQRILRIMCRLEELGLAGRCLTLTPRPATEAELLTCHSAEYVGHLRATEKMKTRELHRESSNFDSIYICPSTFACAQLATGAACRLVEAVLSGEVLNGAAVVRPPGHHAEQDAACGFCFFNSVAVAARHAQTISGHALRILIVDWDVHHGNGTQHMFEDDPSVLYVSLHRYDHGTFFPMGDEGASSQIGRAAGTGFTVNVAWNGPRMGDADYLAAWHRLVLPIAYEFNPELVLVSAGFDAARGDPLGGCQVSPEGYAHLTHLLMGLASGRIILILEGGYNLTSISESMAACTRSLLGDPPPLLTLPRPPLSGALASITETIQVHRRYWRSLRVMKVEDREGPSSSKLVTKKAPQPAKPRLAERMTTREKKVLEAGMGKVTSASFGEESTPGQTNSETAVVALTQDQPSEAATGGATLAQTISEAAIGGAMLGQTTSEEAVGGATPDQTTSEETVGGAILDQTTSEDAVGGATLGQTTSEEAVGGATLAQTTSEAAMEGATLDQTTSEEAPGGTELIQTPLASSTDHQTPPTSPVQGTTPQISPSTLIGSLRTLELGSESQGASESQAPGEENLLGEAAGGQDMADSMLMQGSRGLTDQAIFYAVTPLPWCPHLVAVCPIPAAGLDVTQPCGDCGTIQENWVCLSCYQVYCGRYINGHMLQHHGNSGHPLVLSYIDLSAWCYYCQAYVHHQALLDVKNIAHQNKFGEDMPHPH

recombinant human HDAC4 = recombinant human HDAC4 (Homo sapiens, UniProt P56524); assay: Recombinant HDAC isoform inhibition, HDAC4; assay type: biochemical
recombinant human HDAC2 = recombinant human HDAC2 (Homo sapiens, UniProt Q92769); assay: Recombinant HDAC isoform inhibition, HDAC2; assay type: biochemical
recombinant human HDAC1 = recombinant human HDAC1 (Homo sapiens, UniProt Q13547); assay: Recombinant HDAC isoform inhibition, HDAC1; assay type: biochemical
recombinant human HDAC3 = recombinant human HDAC3 (Homo sapiens, UniProt O15379); assay: Recombinant HDAC isoform inhibition, HDAC3; assay type: biochemical
Sequence of recombinant human HDAC3 (O15379 whole entry, canonical isoform): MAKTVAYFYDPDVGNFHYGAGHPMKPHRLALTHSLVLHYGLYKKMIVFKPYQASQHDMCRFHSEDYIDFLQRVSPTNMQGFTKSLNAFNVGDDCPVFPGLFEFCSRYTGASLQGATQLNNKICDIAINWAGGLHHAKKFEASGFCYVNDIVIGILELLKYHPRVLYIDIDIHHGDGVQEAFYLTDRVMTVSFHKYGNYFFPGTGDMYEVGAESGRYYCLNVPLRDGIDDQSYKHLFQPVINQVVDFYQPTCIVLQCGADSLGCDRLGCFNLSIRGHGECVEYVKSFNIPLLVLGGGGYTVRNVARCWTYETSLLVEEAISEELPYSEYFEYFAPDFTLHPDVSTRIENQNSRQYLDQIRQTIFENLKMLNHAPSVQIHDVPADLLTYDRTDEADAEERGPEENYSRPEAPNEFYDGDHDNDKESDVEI
Sequence of recombinant human HDAC3 (Q9Y618 395-489 partner limits assumed): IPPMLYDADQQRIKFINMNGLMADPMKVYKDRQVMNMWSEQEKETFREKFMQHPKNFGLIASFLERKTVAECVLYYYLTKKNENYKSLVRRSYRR

Sequence of recombinant human HDAC5 (Q9UQL6 whole entry, canonical isoform): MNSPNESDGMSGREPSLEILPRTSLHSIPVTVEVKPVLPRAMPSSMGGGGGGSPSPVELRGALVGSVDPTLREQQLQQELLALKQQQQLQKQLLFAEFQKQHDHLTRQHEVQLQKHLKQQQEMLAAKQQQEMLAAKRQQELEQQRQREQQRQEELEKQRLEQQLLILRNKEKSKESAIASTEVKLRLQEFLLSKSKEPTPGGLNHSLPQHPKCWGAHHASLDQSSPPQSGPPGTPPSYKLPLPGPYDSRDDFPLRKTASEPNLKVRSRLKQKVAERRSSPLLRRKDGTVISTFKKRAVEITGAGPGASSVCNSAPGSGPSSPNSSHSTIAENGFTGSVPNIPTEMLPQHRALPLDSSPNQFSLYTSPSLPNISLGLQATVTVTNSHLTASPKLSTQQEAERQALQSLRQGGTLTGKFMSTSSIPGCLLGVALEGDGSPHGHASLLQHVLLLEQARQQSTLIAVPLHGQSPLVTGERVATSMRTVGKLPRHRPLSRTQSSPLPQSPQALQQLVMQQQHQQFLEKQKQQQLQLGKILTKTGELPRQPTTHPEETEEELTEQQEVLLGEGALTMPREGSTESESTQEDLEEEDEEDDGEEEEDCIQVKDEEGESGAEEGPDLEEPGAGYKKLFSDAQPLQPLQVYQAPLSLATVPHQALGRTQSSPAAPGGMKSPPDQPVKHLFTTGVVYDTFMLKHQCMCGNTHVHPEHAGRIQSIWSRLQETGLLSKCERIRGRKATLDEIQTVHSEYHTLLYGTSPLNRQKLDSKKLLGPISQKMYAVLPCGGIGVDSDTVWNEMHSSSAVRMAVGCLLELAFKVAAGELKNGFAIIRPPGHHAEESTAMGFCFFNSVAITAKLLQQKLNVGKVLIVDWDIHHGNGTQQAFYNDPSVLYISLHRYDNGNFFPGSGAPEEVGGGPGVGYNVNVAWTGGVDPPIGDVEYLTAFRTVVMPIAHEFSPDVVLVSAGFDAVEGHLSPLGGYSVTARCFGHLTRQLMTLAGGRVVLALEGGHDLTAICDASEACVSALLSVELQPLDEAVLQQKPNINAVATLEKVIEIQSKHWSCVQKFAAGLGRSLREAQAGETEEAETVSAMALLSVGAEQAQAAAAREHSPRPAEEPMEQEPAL
Sequence of recombinant human HDAC9 (Q9UKV0 whole entry, canonical isoform): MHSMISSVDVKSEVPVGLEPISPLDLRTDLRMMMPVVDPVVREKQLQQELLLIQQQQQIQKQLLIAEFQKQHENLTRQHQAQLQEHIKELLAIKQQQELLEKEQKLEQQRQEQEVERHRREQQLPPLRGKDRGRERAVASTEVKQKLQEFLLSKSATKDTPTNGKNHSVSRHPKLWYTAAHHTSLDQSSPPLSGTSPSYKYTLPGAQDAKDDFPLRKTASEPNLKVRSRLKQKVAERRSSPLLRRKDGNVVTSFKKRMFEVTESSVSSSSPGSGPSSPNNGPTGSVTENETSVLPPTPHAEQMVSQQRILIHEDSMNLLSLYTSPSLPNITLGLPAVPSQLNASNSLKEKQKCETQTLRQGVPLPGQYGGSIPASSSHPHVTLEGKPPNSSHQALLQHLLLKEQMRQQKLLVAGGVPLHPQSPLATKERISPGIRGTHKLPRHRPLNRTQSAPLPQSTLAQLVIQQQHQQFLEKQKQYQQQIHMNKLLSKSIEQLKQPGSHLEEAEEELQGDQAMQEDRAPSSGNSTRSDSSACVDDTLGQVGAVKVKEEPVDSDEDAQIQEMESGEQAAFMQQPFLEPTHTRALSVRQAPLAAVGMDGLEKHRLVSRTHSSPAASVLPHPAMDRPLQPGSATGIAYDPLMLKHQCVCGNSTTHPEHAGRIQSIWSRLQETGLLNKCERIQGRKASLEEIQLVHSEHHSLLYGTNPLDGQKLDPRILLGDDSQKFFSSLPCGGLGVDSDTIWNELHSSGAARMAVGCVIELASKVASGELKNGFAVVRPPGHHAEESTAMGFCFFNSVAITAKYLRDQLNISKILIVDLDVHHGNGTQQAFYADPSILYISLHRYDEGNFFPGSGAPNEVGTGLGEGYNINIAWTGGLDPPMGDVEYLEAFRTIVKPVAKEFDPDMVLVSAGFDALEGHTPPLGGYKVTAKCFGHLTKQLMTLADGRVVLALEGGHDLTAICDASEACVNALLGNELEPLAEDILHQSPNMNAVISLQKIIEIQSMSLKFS
Sequence of recombinant human HDAC4 (P56524 whole entry, canonical isoform): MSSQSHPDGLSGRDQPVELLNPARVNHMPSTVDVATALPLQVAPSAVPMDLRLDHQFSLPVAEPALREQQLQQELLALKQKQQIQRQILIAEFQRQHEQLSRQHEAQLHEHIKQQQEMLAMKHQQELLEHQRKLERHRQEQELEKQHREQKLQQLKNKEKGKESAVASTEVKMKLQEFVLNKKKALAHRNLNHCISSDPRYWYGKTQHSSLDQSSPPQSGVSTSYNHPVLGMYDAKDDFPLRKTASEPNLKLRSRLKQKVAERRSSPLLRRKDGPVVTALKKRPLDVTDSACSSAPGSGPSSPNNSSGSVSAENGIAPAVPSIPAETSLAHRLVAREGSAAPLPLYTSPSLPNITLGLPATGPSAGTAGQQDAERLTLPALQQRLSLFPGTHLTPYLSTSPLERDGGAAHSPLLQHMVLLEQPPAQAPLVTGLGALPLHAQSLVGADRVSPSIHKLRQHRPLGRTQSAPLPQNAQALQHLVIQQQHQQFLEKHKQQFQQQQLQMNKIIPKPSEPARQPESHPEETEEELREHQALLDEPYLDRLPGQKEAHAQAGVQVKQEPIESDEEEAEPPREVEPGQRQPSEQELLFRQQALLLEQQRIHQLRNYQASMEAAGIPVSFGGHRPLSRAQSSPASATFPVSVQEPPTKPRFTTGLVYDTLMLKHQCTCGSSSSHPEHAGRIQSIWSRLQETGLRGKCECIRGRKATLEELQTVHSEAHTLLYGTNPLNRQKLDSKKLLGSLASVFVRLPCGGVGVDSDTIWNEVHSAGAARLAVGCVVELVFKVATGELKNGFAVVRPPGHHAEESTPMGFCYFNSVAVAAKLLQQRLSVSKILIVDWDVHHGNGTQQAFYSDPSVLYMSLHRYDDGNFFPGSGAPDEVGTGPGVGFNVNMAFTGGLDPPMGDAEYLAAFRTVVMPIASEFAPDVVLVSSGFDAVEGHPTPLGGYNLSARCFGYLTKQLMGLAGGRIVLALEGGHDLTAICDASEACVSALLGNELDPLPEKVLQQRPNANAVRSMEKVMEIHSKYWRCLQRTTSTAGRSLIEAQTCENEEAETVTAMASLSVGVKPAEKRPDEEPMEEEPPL
Sequence of recombinant human HDAC1 (Q13547 whole entry, canonical isoform): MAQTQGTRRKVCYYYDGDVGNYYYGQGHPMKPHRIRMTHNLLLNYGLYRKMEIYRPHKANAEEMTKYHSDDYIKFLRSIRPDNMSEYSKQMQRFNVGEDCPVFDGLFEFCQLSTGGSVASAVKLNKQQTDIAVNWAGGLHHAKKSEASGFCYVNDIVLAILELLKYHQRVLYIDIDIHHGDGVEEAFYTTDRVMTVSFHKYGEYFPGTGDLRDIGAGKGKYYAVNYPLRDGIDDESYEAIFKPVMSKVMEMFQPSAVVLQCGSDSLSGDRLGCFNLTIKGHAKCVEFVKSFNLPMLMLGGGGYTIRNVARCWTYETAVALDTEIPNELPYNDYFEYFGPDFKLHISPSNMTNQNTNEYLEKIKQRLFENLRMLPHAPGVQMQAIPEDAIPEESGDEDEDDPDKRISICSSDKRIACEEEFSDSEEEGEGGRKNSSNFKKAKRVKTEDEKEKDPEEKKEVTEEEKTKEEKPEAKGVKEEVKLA
Sequence of recombinant human HDAC2 (Q92769 whole entry, canonical isoform): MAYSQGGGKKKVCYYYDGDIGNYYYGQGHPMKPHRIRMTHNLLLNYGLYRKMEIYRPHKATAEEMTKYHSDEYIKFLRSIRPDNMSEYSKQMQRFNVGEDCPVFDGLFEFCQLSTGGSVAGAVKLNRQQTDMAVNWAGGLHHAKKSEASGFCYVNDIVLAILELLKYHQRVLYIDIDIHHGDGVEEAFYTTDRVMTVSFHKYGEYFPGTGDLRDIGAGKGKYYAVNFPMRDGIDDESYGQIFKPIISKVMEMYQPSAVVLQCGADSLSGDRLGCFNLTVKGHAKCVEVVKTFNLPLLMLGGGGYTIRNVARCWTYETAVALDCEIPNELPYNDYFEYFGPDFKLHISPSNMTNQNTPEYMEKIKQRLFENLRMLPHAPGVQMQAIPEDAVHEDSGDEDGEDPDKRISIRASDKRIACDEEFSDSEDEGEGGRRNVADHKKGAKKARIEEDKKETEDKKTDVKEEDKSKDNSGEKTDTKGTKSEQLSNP

Row | IC50 (recombinant human HDAC9) [µM] | IC50 (recombinant human HDAC7) [µM] | IC50 (recombinant human HDAC10) [µM] | IC50 (recombinant human HDAC5) [µM] | IC50 (recombinant human HDAC6) [µM] | IC50 (recombinant human HDAC4) [µM] | IC50 [1] [µM] | IC50 (recombinant human HDAC2) [µM] | IC50 (recombinant human HDAC1) [µM] | IC50 (recombinant human HDAC3) [µM] | SMILES | HDAC inhibitory activity in HeLa cell nuclear extract, result in words [1] | Increase of potency relative to the parent ethylketones 3 and 4 [1]
1 | 0.025 | > 10 | 0.028 | 0.06 | > 10 | > 10 | – | – | – | – | CCC(=O)CCCCC[C@@H]1NC(=O)[C@H](C)N(C)C(=O)C[C@H](CC(C)C)NC(=O)[C@H](Cc2c[nH]c3ccccc23)NC1=O [3h] | modest loss of potency | –
2 | 0.55 | > 10 | 0.28 | 0.7 | – | > 10 | – | – | – | – | CC(C)C[C@H]1CC(=O)N[C@@H](C)C(=O)N[C@@H](CCCCCC(=O)O)C(=O)N[C@@H](Cc2c[nH]c3ccccc23)C(=O)N1 [3b] (cyclo([Asu]W[β3hL]A)) | significantly decreased potency | –
3 | 0.0006 | > 10 | 0.0002 | 0.0025 | – | > 10 | – | – | – | – | CC(C)C[C@H]1CC(=O)N[C@@H](C)C(=O)N[C@@H](CCCCCC(=O)NO)C(=O)N[C@@H](Cc2c[nH]c3ccccc23)C(=O)N1 [3a] (cyclo([Asu](NHOH)W[β3hL]A)) | – | –
4 | – | > 10 | – | – | 0.035 | > 10 | < 0.001 | – | 0.0006 | 0.035 | CC(C)C[C@H]1CC(=O)N2CCC[C@H]2C(=O)N[C@@H](CCCCCC(=O)NO)C(=O)N[C@@H](Cc2c[nH]c3ccccc23)C(=O)N1 [4a] (cyclo([Asu](NHOH)W[β3hL]P)) | – | at least 10 fold

The next lines start with the compound.

Row | SMILES | IC50 (recombinant human HDAC9) [µM] | IC50 (recombinant human HDAC7) [µM] | IC50 (recombinant human HDAC10) [µM] | IC50 (recombinant human HDAC5) [µM] | IC50 (recombinant human HDAC6) [µM] | IC50 (recombinant human HDAC4) [µM] | IC50 [1] [µM] | IC50 (recombinant human HDAC2) [µM] | IC50 (recombinant human HDAC1) [µM] | IC50 (recombinant human HDAC3) [µM] | HDAC inhibitory activity in HeLa cell nuclear extract, result in words [1] | Increase of potency relative to the parent ethylketones 3 and 4 [1]
5 | CCC(=O)CCCCC[C@@H]1NC(=O)[C@@H]2CCCN2C(=O)C[C@H](CC(C)C)NC(=O)[C@H](Cc2c[nH]c3ccccc23)NC1=O [compound 4] | 0.022 | > 10 | – | 0.05 | – | > 10 | 0.009 | – | – | – | low nanomolar IC50 values comparable to that of apicidin | –
6 | CCC(=O)CCCCC[C@@H]1NC(=O)[C@H](C)NC(=O)C[C@H](CC(C)C)NC(=O)[C@H](Cc2c[nH]c3ccccc23)NC1=O [compound 3] | 0.03 | > 10 | 0.02 | 0.07 | – | > 10 | 0.019 | 0.03 | 0.035 | – | – | –
7 | CCC(=O)CCCCC[C@@H]1NC(=O)C[C@H](C)NC(=O)C[C@H](CC(C)C)NC(=O)[C@H](Cc2c[nH]c3ccccc23)NC1=O [compound 5] | – | – | – | – | – | – | – | – | – | – | high nanomolar activity | –
